The values that follow come from US8975398B2, “NAMPT inhibitors” (AbbVie Inc., priority 2012, dated 2015).

The structures appear in SMILES notation. pIC50: −log10 of the molar value.

The target of assay [1] is NAMPT (Homo sapiens, UniProt P43490). Description: Time-Resolved Fluorescence Resonance Energy Transfer (TR-FRET) Binding Assay of NAMPT with PRPP. Particulars: 2 nM NAMPT, 2 nM probe, 200 uM PRPP and 2.5 mM ATP, equilibrated 16 hours. The method in brief:
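Final mix: 2 nM NAMPT, 2 nM probe, 1 nM Tb-anti-His antibody, 200 uM PRPP, 2.5 mM ATP, 2% DMSO in 1× assay buffer. Equilibrated 16 hours before TR-FRET read, allowing possible enzymatic modification of compounds.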

The target in assay [2] is NAMPT (human, recombinant, C-terminally His-tagged) (Homo sapiens, UniProt P43490). Nature of the assay: Time-Resolved Fluorescence Resonance Energy Transfer (TR-FRET) Binding Assay of NAMPT. As to conditions: 6.8 nM NAMPT, 200 nM probe, equilibrated 3 hours, absence of substrates. The method in brief: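 Recombinant C-terminally His-tagged human NAMPT (6.8 nM) incubated 3 h at room temperature with 200 nM Oregon Green 488–labelled nicotinamide-competitive probe and 1 nM Tb-anti-His antibody in HEPES pH 7.5, 2% DMSO. TR-FRET ratio Em520/Em495 normalized to controls; IC50 from four-parameter logistic fit.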
Chain of NAMPT (human, recombinant, C-terminally His-tagged) (P43490 whole entry): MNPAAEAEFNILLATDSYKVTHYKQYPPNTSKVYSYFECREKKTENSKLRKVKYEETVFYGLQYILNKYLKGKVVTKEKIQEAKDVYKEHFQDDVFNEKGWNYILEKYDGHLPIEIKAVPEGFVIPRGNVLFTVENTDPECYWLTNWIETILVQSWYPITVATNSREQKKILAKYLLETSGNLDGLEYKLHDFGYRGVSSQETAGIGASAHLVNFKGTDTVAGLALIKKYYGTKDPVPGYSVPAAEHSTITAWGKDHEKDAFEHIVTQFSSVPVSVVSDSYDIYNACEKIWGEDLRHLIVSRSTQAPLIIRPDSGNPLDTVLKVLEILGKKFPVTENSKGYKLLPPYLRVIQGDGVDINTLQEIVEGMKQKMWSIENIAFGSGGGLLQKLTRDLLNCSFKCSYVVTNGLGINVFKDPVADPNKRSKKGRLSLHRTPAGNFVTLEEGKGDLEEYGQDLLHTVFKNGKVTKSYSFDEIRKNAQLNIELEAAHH

Chain of NAMPT (P43490 whole entry): as above

As to `O=C(Nc1ccc(OC2CCN(C(=O)C3CCOC3)CC2)cc1)C1CN(c2ccnnc2)C1` (stereo not drawn) [Example 298, 1-(pyridazin-4-yl)-N-(4-{[1-(tetrahydrofuran-3-ylcarbonyl)piperidin-4-yl]oxy}phenyl)azetidine-3-carboxamide], the pIC50 is 7.21 in assay [1] and 6.72 in assay [2].
For `O=C(Nc1ccc(OC2CCN(C(=O)c3cc(F)cc(F)c3)CC2)cc1)C1CN(c2ccnnc2)C1` [Example 299, N-(4-{[1-(3,5-difluorobenzoyl)piperidin-4-yl]oxy}phenyl)-1-(pyridazin-4-yl)azetidine-3-carboxamide], the pIC50 is 7.06 in assay [1] and 6.81 in assay [2].
Taken in the same sequence, the figures for `CCC(C)(C)C(=O)N1CCC(Oc2ccc(NC(=O)C3CN(c4ccnnc4)C3)cc2)CC1` [Example 300, N-(4-{[1-(2,2-dimethylbutanoyl)piperidin-4-yl]oxy}phenyl)-1-(pyridazin-4-yl)azetidine-3-carboxamide] were 7.41 and 7.19.
Taken in the same sequence, the figures for `O=C(Nc1ccc(OC2CCN(C(=O)C3CC3)CC2)cc1)C1CN(c2ccnnc2)C1` [Example 301, N-(4-{[1-(cyclopropylcarbonyl)piperidin-4-yl]oxy}phenyl)-1-(pyridazin-4-yl)azetidine-3-carboxamide] were 7.32 and 6.84.
Taken in the same sequence, the figures for `O=C(Nc1ccc(OC2CCN(C(=O)C3CCCO3)CC2)cc1)C1CN(c2ccnnc2)C1` (stereo not drawn) [Example 302, 1-(pyridazin-4-yl)-N-(4-{[1-(tetrahydrofuran-2-ylcarbonyl)piperidin-4-yl]oxy}phenyl)azetidine-3-carboxamide] were 7.32 and 6.82.
`O=C(Nc1ccc(OC2CCN(C(=O)c3cccs3)CC2)cc1)C1CN(c2ccnnc2)C1` [Example 303, 1-(pyridazin-4-yl)-N-(4-{[1-(thiophen-2-ylcarbonyl)piperidin-4-yl]oxy}phenyl)azetidine-3-carboxamide]: the pIC50 was 7.81 in assay [1] and 7.51 in assay [2].
Taken in the same sequence, the figures for `Cc1ccc(C(=O)N2CCC(Oc3ccc(NC(=O)C4CN(c5ccnnc5)C4)cc3)CC2)s1` [Example 304, N-[4-({1-[(5-methylthiophen-2-yl)carbonyl]piperidin-4-yl}oxy)phenyl]-1-(pyridazin-4-yl)azetidine-3-carboxamide] were 7.62 and 7.26.
The matching figures for `O=C(Nc1ccc(OC2CCN(C(=O)Cc3cccc(C(F)(F)F)c3)CC2)cc1)C1CN(c2ccnnc2)C1` [Example 305, 1-(pyridazin-4-yl)-N-{4-[(1-{[3-(trifluoromethyl)phenyl]acetyl}piperidin-4-yl)oxy]phenyl}azetidine-3-carboxamide]: 7.46 and 6.96.
As for `O=C(Nc1ccc(OC2CCN(C(=O)C3CCOCC3)CC2)cc1)C1CN(c2ccnnc2)C1` [Example 306, 1-(pyridazin-4-yl)-N-(4-{[1-(tetrahydro-2H-pyran-4-ylcarbonyl)piperidin-4-yl]oxy}phenyl)azetidine-3-carboxamide], the figures for the pIC50 in assay [1] and in assay [2] were 7.33 and 6.95, respectively.
Taken in the same sequence, the figures for `CC[C@H](C)C(=O)N1CCC(Oc2ccc(NC(=O)C3CN(c4ccnnc4)C3)cc2)CC1` [Example 307, N-[4-({1-[(2S)-2-methylbutanoyl]piperidin-4-yl}oxy)phenyl]-1-(pyridazin-4-yl)azetidine-3-carboxamide] were 7.80 and 7.42.
Regarding `O=C(Nc1ccc(OC2CCN(C(=O)Cc3ccccc3F)CC2)cc1)C1CN(c2ccnnc2)C1` [Example 308, N-[4-({1-[(2-fluorophenyl)acetyl]piperidin-4-yl}oxy)phenyl]-1-(pyridazin-4-yl)azetidine-3-carboxamide], the pIC50 in assay [1] was 7.74; in assay [2], 7.43.
Taken in the same sequence, the figures for `CC(C)Cn1cc(-c2ccc(C(=O)NC3CN(c4cccnn4)C3)o2)cn1` [Example 309, 5-[1-(2-methylpropyl)-1H-pyrazol-4-yl]-N-[1-(pyridazin-3-yl)azetidin-3-yl]furan-2-carboxamide] were 9.53 and 5.38.
